Experimental data from PMC6150275, “Synthesis and Molecular Modeling Studies of N′-Hydroxyindazolecarboximidamides as Novel Indoleamine 2,3-Dioxygenase 1 (IDO1) Inhibitors” (Molecules : A Journal of Synthetic Chemistry and Natural …, 2017).
“Also recorded” adds a separate entry of the source. Like-named read-outs stand apart in the source and are kept apart here.

What was measured:
[1] = target: T1, human IDO1 expressing HEK293 recombinant cells (Homo sapiens, UniProt P14902); assay: Cell based assay for anti-IDO1 activity by determination of tryptophan and kynurenine in culture supernatant using LC-MS; conditions: for IC50: human IDO1-expressing HEK293 cells, doxycycline induced, 24 h, dose-response curve
T1 construct: expressed in transfected cells; host or cells: Flp-In-Rex- HEK293 cells (Invitrogen), pcDNA5/FRT/TO vector, doxycycline-induced
Procedure: All synthesized compounds were evaluated for inhibitory activities against IDO1. For this purpose, we generated human IDO1 gene-expressing HEK293 recombinant cells and used those cells to analyze the inhibitory capacity of the compounds. Briefly, we induced the expression vector system of IDO1 by treating […] cells with doxycycline, and measured both the depletion of L-tryptophan in culture media and the generation of kynurenine in IDO1-overexpressing HEK293 cells by using the LC-MS system upon culture supernatants.
cDNA of human IDO1 gene (provided from Korean UniGene, Daejeon, Korea) was inserted into pcDNA5/FRT/TO expression vector (Invitrogen, Waltham, MA, USA) and transfected into Flp-In-Rex- HEK293 cells (Invitrogen). After transfection, homogenous IDO1 expressing HEK293 cells were selected using hygromycin and confirmed for their IDO1 expression using Western blot.
To analyze anti-IDO1 activity of compounds, human IDO1 expressing HEK293 recombinant cells were seeded in 100 μL of complete MEM media containing 10% FBS in a 96-well plate. After incubation for 48 hours, various concentrations of compounds with 0.2 ng/mL doxycyclin (Sigma Aldrich, St. Louis, MO, USA) was treated and incubated for 24 h. Culture supernatants were collected and prepared for analysis of tryptophan and kynurenine using LC-MS. For preparation of samples for LC-MS analysis, 30 μL of culture supernatant was mixed with 2 μM caffeine containing 270 μL methanol. After centrifugation at 12,000 rpm for 10 min, 100 μL of supernatant was transferred into new 1.5 mL tubes. Distilled water (900 μL) was added into 100 μL of supernatant and vortexed. The concentrations of tryptophan and kynurenine were determined by an LC-MS/MS system consisting of an Agilent 1200 series HPLC system (Agilent Technologies, Santa Clara, CA, USA) with an API 4000 QTRAP hybrid triple quadrupole/linear ion trap mass spectrometer (AB Sciex, Foster City, CA, USA) equipped with a turbo electrospray interface. Chromatographic separation of tryptophan and kynurenine was achieved on a Unison UK-C18 column (100 mm × 2 mm i.d., 3 μm; Imtakt, Kyoto, Japan) with a Security Guard C18 guard column (4 mm × 20 mm i.d.; Phenomenex, Torrance, CA, USA) maintained at 25 °C. Isocratic mode was used to achieve separation of the analytes using mobile phase (acetonitrile with 0.1 formic acid and water with 0.1% formic acid (20:80 v/v) at a flow rate of 300 μL/min for 3 min. The multiple reaction monitoring (MRM) transition was m/z 204.94 → 188.1 for tryptophan and m/z 208.97 → 192.00 for kynurenine under positive-ionization. Optimized values for de-clustering potential, collision energy, entrance potential, and collision-exit potential were 26 V, 15 eV, 9.5 V and 8 V and 21 V, 13 eV, 10 V and 8 V for tryptophan and kynurenine, respectively. The optimized instrument conditions were as follows: ion spray voltage, 5500 V; source temperature, 450 °C; curtain gas, 25 psi; nebulizing gas (GS1), 30 psi; heating gas (GS2), 30 psi. Data analysis was performed using Analyst Software version 1.4.2. (AB Sciex, Foster City, CA, USA).

[2] = target: T2, hIDO1 (Homo sapiens, UniProt P14902); assay: hIDO1 enzymatic assay (BPS Bioscience IDO1 inhibitor screening assay kit); format: biochemical; conditions: for inhibition at 20 µM: 20 µM compound, enzymatic assay
T2 construct: purchased BPS Bioscience (San Diego, CA, USA)
Procedure: To analyze the hIDO1 inhibitory activities of compounds, we used IDO1 inhibitor screening assay kit and followed the protocol provided from BPS Bioscience (San Diego, CA, USA). Briefly, 5 μL of IDO solution was aliquoted into a 384-well plate and treated with 5 μL of compound in buffer at room temperature for 3 h. The data was measured at λ = 320 to 325 nm.

[3] = kynurenine by LC-MS, read-out: HEK293 IC50 Kynurenine Production
[4] = tryptophan by LC-MS, read-out: HEK293 IC50 Tryptophan Depletion

T2 sequence (P14902 whole entry): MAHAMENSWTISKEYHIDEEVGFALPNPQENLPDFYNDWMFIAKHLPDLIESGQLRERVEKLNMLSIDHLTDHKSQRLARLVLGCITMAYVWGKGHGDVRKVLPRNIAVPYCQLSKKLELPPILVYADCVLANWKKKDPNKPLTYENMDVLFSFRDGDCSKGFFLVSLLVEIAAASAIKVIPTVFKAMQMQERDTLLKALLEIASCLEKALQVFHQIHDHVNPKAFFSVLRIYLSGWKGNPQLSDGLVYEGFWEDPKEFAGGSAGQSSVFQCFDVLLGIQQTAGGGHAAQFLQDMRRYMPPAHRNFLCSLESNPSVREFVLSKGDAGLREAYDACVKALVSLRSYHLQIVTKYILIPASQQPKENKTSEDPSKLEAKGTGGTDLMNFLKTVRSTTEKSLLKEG
T1 sequence (P14902 whole entry): as above

Row | IDO1 inhibition in cell-based assay (in words) [1] | IC50 [1, 3] [µM] | IC50 [1, 4] [µM] | inhibition at 20 µM [2] [%] | hIDO1 inhibition in enzymatic assay (in words) [2] | Compound
1 |  | 3.14 | 3.26 | 79 |  | O/N=C(\Nc1ccc(F)c(Cl)c1)c1cccc2cn[nH]c12 [Compound 8b, (Z)-N-(3-Chloro-4-fluorophenyl)-N′-hydroxy-1H-indazole-7-carboximidamide]
2 |  | 4.89 | 4.95 | 77 |  | O/N=C(\Nc1cccc(Cl)c1)c1cccc2cn[nH]c12 [Compound 8c, (Z)-N-(3-Chlorophenyl)-N′-hydroxy-1H-indazole-7-carboximidamide]
3 |  | > 10 | > 10 |  |  | O/N=C(\Nc1ccc(F)cc1)c1cccc2cn[nH]c12 [Compound 8d, (Z)-N-(4-Fluorophenyl)-N′-hydroxy-1H-indazole-7-carboximidamide]
4 |  | > 10 | > 10 |  |  | O/N=C(\Nc1cc(F)ccc1F)c1cccc2cn[nH]c12 [Compound 8e, (Z)-N-(2,5-Difluorophenyl)-N′-hydroxy-1H-indazole-7-carboximidamide]
5 |  | > 10 | > 10 |  |  | CC(=O)c1cccc(N/C(=N\O)c2cccc3cn[nH]c23)c1 [Compound 8f, (Z)-N-(3-Acetylphenyl)-N′-hydroxy-1H-indazole-7-carboximidamide]
6 |  | > 10 | > 10 |  |  | Cc1cccc(N/C(=N\O)c2cccc3cn[nH]c23)c1 [Compound 8g, (Z)-N′-Hydroxy-N-(m-tolyl)-1H-indazole-7-carboximidamide]
7 |  | > 10 | > 10 |  |  | Cc1cc(N/C(=N\O)c2cccc3cn[nH]c23)ccc1Cl [Compound 8h, (Z)-N-(4-Chloro-3-methylphenyl)-N′-hydroxy-1H-indazole-7-carboximidamide]
8 |  | > 10 | > 10 |  |  | COc1ccc(N/C(=N\O)c2cccc3cn[nH]c23)cc1Cl [Compound 8i, (Z)-N-(3-Chloro-4-methoxyphenyl)-N′-hydroxy-1H-indazole-7-carboximidamide]
9 |  | > 10 | > 10 |  |  | O/N=C(\Nc1ccccc1)c1cccc2cn[nH]c12 [Compound 8j, (Z)-N′-Hydroxy-N-phenyl-1H-indazole-7-carboximidamide]
10 |  | > 10 | > 10 |  |  | O/N=C(\Nc1ccc(Cl)cc1)c1cccc2cn[nH]c12 [Compound 8k, (Z)-N-(4-Chlorophenyl)-N′-hydroxy-1H-indazole-7-carboximidamide]
11 |  | > 10 | > 10 |  |  | COc1ccc(N/C(=N\O)c2cccc3cn[nH]c23)cc1 [Compound 8l, (Z)-N′-Hydroxy-N-(4-methoxyphenyl)-1H-indazole-7-carboximidamide]
12 |  | > 10 | > 10 |  |  | Cc1ccc(N/C(=N\O)c2cccc3cn[nH]c23)cc1 [Compound 8m, (Z)-N′-Hydroxy-N-(p-tolyl)-1H-indazole-7-carboximidamide]
13 | did not inhibit IDO1 | > 10 | > 10 | 15 | did not inhibit IDO1 | Cn1ncc2cccc(/C(=N/O)Nc3ccc(F)c(Br)c3)c21 [Compound 12, (Z)-N-(3-Bromo-4-fluorophenyl)-N′-hydroxy-1-methyl-1H-indazole-7-carboximidamide]
14 | moderate inhibitory activity | 7.91 | 7.76 |  |  | O/N=C(\Nc1ccc(F)c(Br)c1)c1ccccc1O [Compound 16, (Z)-N-(3-Bromo-4-fluorophenyl)-N′,2-dihydroxybenzimidamide]

Row | Compound | IDO1 inhibition in cell-based assay (in words) [1] | IC50 [1, 3] [µM] | IC50 [1, 4] [µM] | inhibition at 20 µM [2] [%] | hIDO1 inhibition in enzymatic assay (in words) [2]
15 | O/N=C(\Nc1ccc(F)c(Br)c1)c1cccc2cn[nH]c12 [Compound 8a, (Z)-N-(3-Bromo-4-fluorophenyl)-N′-hydroxy-1H-indazole-7-carboximidamide] | most active in this series; also recorded: moderate IDO1 inhibitory activity | 2.13 | 1.76 | 81 | 
